Data reported in patent publication US20250230193A1, “CYCLIC COMPOUND HAVING SELECTIVE KRAS INHIBITORY EFFECT ON HRAS AND NRAS” (CHUGAI SEIYAKU KABUSHIKI KAISHA, priority 2022, published 2025).

Assays:
[1] = biological target: GDP-bound NRAS wild-type protein (Homo sapiens, UniProt P01111); experiment: Binding to NRAS by surface plasmon resonance (SPR), Single Cycle Kinetics; conditions: SPR; KD ratio class
[2] = biological target: GDP-bound HRAS wild-type protein (Homo sapiens, UniProt P01112); experiment: Binding to HRAS by surface plasmon resonance (SPR), Single Cycle Kinetics; conditions: SPR; KD ratio class
[3] = tested on: human lung cancer strain NCI-H441; experiment: cells; conditions: NCI-H441, 96 h, read-out: NCI-H441 IC50 (nM)

Sequence of GDP-bound NRAS wild-type protein (P01111 whole entry): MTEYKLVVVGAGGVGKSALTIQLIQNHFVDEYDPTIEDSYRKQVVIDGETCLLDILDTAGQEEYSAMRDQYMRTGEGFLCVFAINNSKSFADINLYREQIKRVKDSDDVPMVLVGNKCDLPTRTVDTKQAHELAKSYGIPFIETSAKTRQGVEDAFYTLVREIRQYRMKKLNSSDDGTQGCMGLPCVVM
Sequence of GDP-bound HRAS wild-type protein (P01112 whole entry): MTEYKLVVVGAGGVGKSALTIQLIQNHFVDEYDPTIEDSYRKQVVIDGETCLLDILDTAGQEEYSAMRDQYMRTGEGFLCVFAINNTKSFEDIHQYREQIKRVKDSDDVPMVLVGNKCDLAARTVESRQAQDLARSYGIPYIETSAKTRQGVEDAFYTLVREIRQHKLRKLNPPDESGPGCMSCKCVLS

Structure (SMILES)	NRAS/KRAS (ratio of KD value for GDP-bound NRAS wild-type protein to KD value for KRAS) [1]	HRAS/KRAS (ratio of KD value for GDP-bound HRAS wild-type protein to KD value for KRAS) [2]	IC50 [3] [nM]
CC[C@H](C)[C@@H]1NC(=O)[C@H](CC(C)C)N(C)C(=O)C[C@@H](C(=O)N2CCOCC2)N(C)C(=O)[C@H](C2CCCC2)N(C)C(=O)C2(CCC2)NC(=O)[C@@H]2CCCN2C(=O)[C@H](CCc2cc(F)c(C(F)(F)F)c(F)c2)NC(=O)CN(C)C(=O)[C@H](Cc2ccc(C(F)(F)F)cc2)N2C[C@H](C)[C@H](C)C[C@@H](C2=O)N(C)C(=O)[C@@H]2CCN2C1=O [PP1367]	A (a compound having 10 or more and less than 20 is denoted as A)	B (a compound having 3 or more and less than 10 is denoted as B)	29.3
CC[C@H](C)[C@@H]1NC(=O)[C@H](CC2CC2)N(C)C(=O)C[C@@H](C(=O)N(C)C)N(C)C(=O)[C@H](C2CCCC2)N(C)C(=O)C2(CCCC2)NC(=O)[C@@H]2CCCN2C(=O)[C@H](CCc2cc(F)c(C(F)(F)F)c(F)c2)NC(=O)CN(C)C(=O)[C@H](Cc2ccc(C(F)(F)F)cc2)N2C[C@H](C)[C@H](C)C[C@@H](C2=O)N(C)C(=O)CN(C)C1=O [PP1368]	A (a compound having 10 or more and less than 20 is denoted as A)	B (a compound having 3 or more and less than 10 is denoted as B)	2.9
CCO[C@@H]1C[C@H]2C(=O)NC3(CCC3)C(=O)N(C)[C@@H](C3CCCC3)C(=O)N(C)[C@H](C(=O)N3CCOCC3)CC(=O)N(C)[C@@H](CC)C(=O)N[C@@H]([C@@H](C)CC)C(=O)N3CC[C@H]3C(=O)N(C)[C@H]3CC[C@@H](C)CN(C3=O)[C@@H](Cc3ccc(C(F)(F)F)cc3)C(=O)N(C)CC(=O)N[C@@H](CCc3cc(F)c(C(F)(F)F)c(F)c3)C(=O)N2C1 [PP1369]	B (a compound having 3 or more and less than 10 is denoted as B)	B (a compound having 3 or more and less than 10 is denoted as B)	13.4
CCO[C@@H]1C[C@H]2C(=O)NC3(CCCC3)C(=O)N(C)[C@@H](C3CCCC3)C(=O)N(C)[C@H](C(=O)N(C)C)CC(=O)N(C)[C@@H](CC)C(=O)N[C@@H]([C@@H](C)CC)C(=O)N(C)CC(=O)N(C)[C@H]3CC[C@@H](C)CN(C3=O)[C@@H](Cc3ccc(C(F)(F)F)cc3)C(=O)N(C)CC(=O)N[C@@H](CCc3cc(F)c(C(F)(F)F)c(F)c3)C(=O)N2C1 [PP1370]	C (A compound having a KD ratio of 0.1 or more and less than 3 is denoted as C)	C (A compound having a KD ratio of 0.1 or more and less than 3 is denoted as C)	2.3
CCO[C@@H]1C[C@H]2C(=O)NC3(CCCC3)C(=O)N(C)[C@@H](C3CCCC3)C(=O)N(C)[C@H](C(=O)N3CCOCC3)CC(=O)N(C)[C@@H](CC)C(=O)N[C@@H]([C@@H](C)CC)C(=O)N(C)CC(=O)N(C)[C@H]3CC[C@@H](C)CN(C3=O)[C@@H](Cc3ccc(C(F)(F)F)cc3)C(=O)N(C)CC(=O)N[C@@H](CCc3cc(F)c(C(F)(F)F)c(F)c3)C(=O)N2C1 [PP1371]	A (a compound having 10 or more and less than 20 is denoted as A)	B (a compound having 3 or more and less than 10 is denoted as B)	5.1
CCO[C@@H]1C[C@H]2C(=O)NC3(CCC3)C(=O)N(C)[C@@H](C3CCCC3)C(=O)N(C)[C@H](C(=O)N3CCOCC3)CC(=O)N(C)[C@@H](CC)C(=O)N[C@@H]([C@@H](C)CC)C(=O)N(C)CC(=O)N(C)[C@H]3CC[C@@H](C)CN(C3=O)[C@@H](Cc3ccc(C(F)(F)F)cc3)C(=O)N(C)CC(=O)N[C@@H](CCc3cc(F)c(C(F)(F)F)c(F)c3)C(=O)N2C1 [PP1372]	B (a compound having 3 or more and less than 10 is denoted as B)	B (a compound having 3 or more and less than 10 is denoted as B)	5
CCO[C@@H]1C[C@H]2C(=O)NC3(CCC3)C(=O)N(C)[C@@H](C3CCCC3)C(=O)N(C)[C@H](C(=O)N3CCOCC3)CC(=O)N(C)[C@@H](CC(C)C)C(=O)N[C@@H]([C@@H](C)CC)C(=O)N3CC[C@H]3C(=O)N(C)[C@H]3CC[C@@H](C)CN(C3=O)[C@@H](Cc3ccc(C(F)(F)F)cc3)C(=O)N(C)CC(=O)N[C@@H](CCc3cc(F)c(C(F)(F)F)c(F)c3)C(=O)N2C1 [PP1373]	B (a compound having 3 or more and less than 10 is denoted as B)	B (a compound having 3 or more and less than 10 is denoted as B)	12.2
CCO[C@@H]1C[C@H]2C(=O)NC3(CCC3)C(=O)N(C)[C@@H](C3CCCC3)C(=O)N(C)[C@H](C(=O)N3CCOCC3)CC(=O)N(C)[C@@H](CC)C(=O)N[C@@H]([C@@H](C)CC)C(=O)N3CC[C@H]3C(=O)N(C)[C@H]3CC[C@@H](C)CN(C3=O)[C@@H](Cc3ccc(C(F)(F)F)cc3)C(=O)N(C)CC(=O)N[C@@H](CCc3ccc(C(F)(F)F)c(Cl)c3)C(=O)N2C1 [PP1375]	B (a compound having 3 or more and less than 10 is denoted as B)	B (a compound having 3 or more and less than 10 is denoted as B)	11.5
CCO[C@@H]1C[C@H]2C(=O)NC3(CCCC3)C(=O)N(C)[C@@H](C3CCCC3)C(=O)N(C)[C@H](C(=O)N(C)C)CC(=O)N(C)[C@@H](CC)C(=O)N[C@@H]([C@@H](C)CC)C(=O)N(C)CC(=O)N(C)[C@H]3CC[C@@H](C)CN(C3=O)[C@@H](Cc3ccc(C(F)(F)F)cc3)C(=O)N(C)CC(=O)N[C@@H](CCc3ccc(C(F)(F)F)c(Cl)c3)C(=O)N2C1 [PP1376]	B (a compound having 3 or more and less than 10 is denoted as B)	B (a compound having 3 or more and less than 10 is denoted as B)	3.5
CCO[C@@H]1C[C@H]2C(=O)NC3(CCCC3)C(=O)N(C)[C@@H](C3CCCC3)C(=O)N(C)[C@H](C(=O)N3CCOCC3)CC(=O)N(C)[C@@H](CC)C(=O)N[C@@H]([C@@H](C)CC)C(=O)N(C)CC(=O)N(C)[C@H]3CC[C@@H](C)CN(C3=O)[C@@H](Cc3ccc(C(F)(F)F)cc3)C(=O)N(C)CC(=O)N[C@@H](CCc3ccc(C(F)(F)F)c(Cl)c3)C(=O)N2C1 [PP1377]	B (a compound having 3 or more and less than 10 is denoted as B)	B (a compound having 3 or more and less than 10 is denoted as B)	5.8
CCO[C@@H]1C[C@H]2C(=O)NC3(CCC3)C(=O)N(C)[C@@H](C3CCCC3)C(=O)N(C)[C@H](C(=O)N3CCOCC3)CC(=O)N(C)[C@@H](CC)C(=O)N[C@@H]([C@@H](C)CC)C(=O)N(C)CC(=O)N(C)[C@H]3CC[C@@H](C)CN(C3=O)[C@@H](Cc3ccc(C(F)(F)F)cc3)C(=O)N(C)CC(=O)N[C@@H](CCc3ccc(C(F)(F)F)c(Cl)c3)C(=O)N2C1 [PP1378]	B (a compound having 3 or more and less than 10 is denoted as B)	C (A compound having a KD ratio of 0.1 or more and less than 3 is denoted as C)	6.6
CCO[C@@H]1C[C@H]2C(=O)NC3(CCC3)C(=O)N(C)[C@@H](C3CCCC3)C(=O)N(C)[C@H](C(=O)N3CCOCC3)CC(=O)N(C)[C@@H](CC(C)C)C(=O)N[C@@H]([C@@H](C)CC)C(=O)N3CC[C@H]3C(=O)N(C)[C@H]3CC[C@@H](C)CN(C3=O)[C@@H](Cc3ccc(C(F)(F)F)cc3)C(=O)N(C)CC(=O)N[C@@H](CCc3ccc(C(F)(F)F)c(Cl)c3)C(=O)N2C1 [PP1379]	A (a compound having 10 or more and less than 20 is denoted as A)	B (a compound having 3 or more and less than 10 is denoted as B)	10.3
CC[C@H](C)[C@@H]1NC(=O)[C@H](CC)N(C)C(=O)C[C@@H](C(=O)N(C)C)N(C)C(=O)[C@H](C2CCCC2)N(C)C(=O)C2(CCCC2)NC(=O)[C@@H]2CCCN2C(=O)[C@H](CCc2cc(F)c(C(F)(F)F)c(F)c2)NC(=O)CN(C)C(=O)[C@H](Cc2ccc(C(F)(F)F)cc2)N2C[C@H](C)CC[C@@H](C2=O)N(C)C(=O)CN(C)C1=O [PP1382]	B (a compound having 3 or more and less than 10 is denoted as B)	B (a compound having 3 or more and less than 10 is denoted as B)	15.8
CC[C@H](C)[C@@H]1NC(=O)[C@H](CC)N(C)C(=O)C[C@@H](C(=O)N2CCOCC2)N(C)C(=O)[C@H](C2CCCC2)N(C)C(=O)C2(CCCC2)NC(=O)[C@@H]2CCCN2C(=O)[C@H](CCc2cc(F)c(C(F)(F)F)c(F)c2)NC(=O)CN(C)C(=O)[C@H](Cc2ccc(C(F)(F)F)cc2)N2C[C@H](C)CC[C@@H](C2=O)N(C)C(=O)CN(C)C1=O [PP1383]	B (a compound having 3 or more and less than 10 is denoted as B)	B (a compound having 3 or more and less than 10 is denoted as B)	11.2
CC[C@H](C)[C@@H]1NC(=O)[C@H](CC)N(C)C(=O)C[C@@H](C(=O)N2CCOCC2)N(C)C(=O)[C@H](C2CCCC2)N(C)C(=O)C2(CCC2)NC(=O)[C@@H]2CCCN2C(=O)[C@H](CCc2cc(F)c(C(F)(F)F)c(F)c2)NC(=O)CN(C)C(=O)[C@H](Cc2ccc(C(F)(F)F)cc2)N2C[C@H](C)CC[C@@H](C2=O)N(C)C(=O)CN(C)C1=O [PP1384]	A (a compound having 10 or more and less than 20 is denoted as A)	B (a compound having 3 or more and less than 10 is denoted as B)	13.5
